Experiments:
Experiment in all cases: relative viability (nuclei count vs DMSO), 5 days (fraction); higher = more cells survive
[1] = compound: CC(C)N(CCCNC(=O)Nc1ccc(C(C)(C)C)cc1)C[C@H]1O[C@@H](n2ccc3c(N)ncnc32)[C@H](O)[C@@H]1O + CCNC(=O)c1noc(-c2cc(C(C)C)c(O)cc2O)c1-c1ccc(CN2CCOCC2)cc1 [Luminespib] (partner 0.01 µM)
In short: (§1)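 One day after seeding in 1536-well plates, lung cancer cell lines were dosed by pin tool. Dosing was either single-drug or a fixed anchor-drug dose plus five library-drug doses (not always all listed) in √10 steps. After 5 days, nuclei were stained in one fix-and-stain step and counted on 4× images, and relative viability is the nuclei count of treated wells over that of vehicle wells, given as the median of duplicate plates.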

[2] = compound: CC(C)N(CCCNC(=O)Nc1ccc(C(C)(C)C)cc1)C[C@H]1O[C@@H](n2ccc3c(N)ncnc32)[C@H](O)[C@@H]1O + O=C(c1cc(Cc2n[nH]c(=O)c3ccccc23)ccc1F)N1CCN(C(=O)C2CC2)CC1 [Olaparib] (partner 8 µM)
In short: as §1

Shikonin + Vorinostat = compound: CC(C)=CC[C@@H](O)C1=CC(=O)c2c(O)ccc(O)c2C1=O [Shikonin] + O=C(CCCCCCC(=O)Nc1ccccc1)NO [Vorinostat] (partner 1 µM)
In short: as §1

[3] = compound: CC(C)N(CCCNC(=O)Nc1ccc(C(C)(C)C)cc1)C[C@H]1O[C@@H](n2ccc3c(N)ncnc32)[C@H](O)[C@@H]1O + C[C@]1(O)C[C@@H](c2nc(-c3ccc4ccc(-c5ccccc5)nc4c3)c3c(N)nccn32)C1 [Linsitinib] (partner 1 µM)
In short: as §1

Cell Line	relative viability ([1]; first compound 0.08 µM)	relative viability ([1]; first compound 0.253 µM)	relative viability ([1]; first compound 0.8 µM)	relative viability ([1]; first compound 2.53 µM)	relative viability ([1]; first compound 8 µM)	relative viability ([2]; first compound 0.08 µM)	relative viability ([2]; first compound 0.253 µM)	relative viability ([2]; first compound 0.8 µM)	relative viability ([2]; first compound 2.53 µM)	relative viability ([2]; first compound 8 µM)	relative viability (Shikonin + Vorinostat; first compound 0.01 µM)	relative viability (Shikonin + Vorinostat; first compound 0.1 µM)	relative viability (Shikonin + Vorinostat; first compound 0.3162 µM)	relative viability (Shikonin + Vorinostat; first compound 1 µM)	relative viability ([3]; first compound 0.08 µM)	relative viability ([3]; first compound 0.253 µM)	relative viability ([3]; first compound 0.8 µM)	relative viability ([3]; first compound 2.53 µM)	relative viability ([3]; first compound 8 µM)
LU99A	0.234	0.277	0.253	0.317	0.222	0.322	0.252	0.264	0.275	0.237	0.459	0.617	0.485	0.494	0.516	0.405	0.521	0.582	0.563
ABC-1	0.676	0.802	–	0.635	0.583	0.69	0.745	–	1.47	0.8	1.2	1.15	1.08	0.837	0.978	0.95	–	0.709	0.905
NCI-H2405	0.691	0.61	0.722	0.78	0.74	0.854	0.906	0.755	0.961	0.842	1.11	1.12	1.03	1.11	0.901	–	0.919	0.966	0.945
NCI-H2009	0.977	0.861	1.08	1.02	0.884	0.723	0.643	0.644	0.629	0.64	0.918	0.737	0.789	0.649	1.18	1.21	1.18	1.13	0.958
NCI-H441	0.39	0.334	–	0.278	0.368	0.558	0.632	–	0.544	0.573	0.875	0.832	0.783	0.695	0.565	0.557	0.602	0.611	0.636
PC-3 [JPC-3]	0.699	0.704	0.779	0.71	0.683	1.12	1.15	–	1.11	1.07	0.845	0.792	0.781	1.3	0.97	0.94	0.876	0.919	0.897
HARA	0.682	0.626	0.731	0.536	0.587	0.844	0.737	0.764	0.538	0.494	0.546	0.51	0.468	0.605	0.885	0.845	0.868	0.794	0.906
NCI-H2126	0.847	0.814	0.941	0.88	0.925	0.873	0.932	0.901	0.883	0.778	0.806	0.757	0.841	0.819	0.713	0.674	0.743	0.749	0.676
NCI-H1437	1.07	1.02	1.14	1.15	1.05	0.604	0.642	0.624	0.592	0.561	0.886	0.841	0.856	0.736	0.974	1.03	1.16	1.05	0.936
NCI-H727	0.372	0.453	0.445	0.232	0.471	0.587	0.676	0.673	0.759	0.647	1.32	1.44	1.27	1.14	0.333	0.281	0.286	0.359	0.209
COR-L23	0.683	0.757	0.755	0.739	0.545	0.297	0.376	0.365	0.347	0.29	0.413	0.449	0.471	0.308	0.837	0.934	0.916	1.04	0.897
COR-L 105	0.705	0.811	0.601	0.827	0.736	0.678	0.724	0.702	0.652	0.649	0.841	0.91	0.881	0.853	0.805	1.18	1.07	0.727	0.896
LK-2	0.185	0.193	0.191	0.169	0.214	0.713	0.544	0.771	0.632	0.82	0.279	0.309	0.214	0.316	0.678	0.405	0.496	0.554	0.509
201T	1.04	1.01	1.13	0.984	1.06	0.83	0.891	–	0.809	0.797	1.02	1.03	1.02	1	1.01	1.06	0.981	1.01	1.08
HCC-44	0.972	1.06	1.1	1.15	1.03	1	1.03	0.981	1	0.972	1.14	1.12	1.13	1.03	0.647	0.68	0.748	0.666	0.729
NCI-H650	0.665	0.803	0.666	0.757	0.774	0.376	0.468	0.305	0.32	0.328	0.425	0.418	0.465	0.439	0.757	0.732	1.04	0.791	0.704
H3255	0.875	0.892	0.876	0.838	0.837	0.552	0.562	0.555	0.598	0.517	0.703	0.959	0.916	0.855	0.804	0.958	0.947	0.994	0.84
